These results are taken from patent publication US11986471B2, “Compounds and methods of use” (Tango Therapeutics, Inc., priority 2018, dated 2024).

Experiment [1] concerns the target T1, PRMT5 (Homo sapiens, UniProt O14744).
T1 construct: purchased Viva (custom protein)
The experiment can be described thus: PRMT5 IC50 assay in the presence of SAM as cofactor. Format: biochemical. The essentials:
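Enzyme: human PRMT5. Conditions: plus SAM, plus MTA, or cofactor-free. Output: IC50 (μM); Ki via IC50/1.5 (SAM) or IC50/13.5 (MTA).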

The next experiment has as its system HAP1 MTAP-intact. In words: SDMA in-cell western assay, HAP1 MTAP-intact cell line. Type of experiment: cell-based. The conditions noted are these: Homo sapiens. Summed up: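 Symmetric dimethylarginine (SDMA) levels were measured by in-cell western in an isogenic HAP1 pair, one expressing endogenous MTAP and one MTAP-null, and IC50 values were derived for each line. Compounds whose IC50 ratio between the lines is 3-fold or more are classed as MTAP-selective.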

Experiment [2] addresses T1, PRMT5. The experiment can be described thus: PRMT5 IC50 assay with no cofactor. Format: biochemical. Summed up:
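For the SAM-containing format, dividing IC50 by 1.5 yields Ki; for the MTA-containing format the divisor is 13.5. A third format without cofactor gives IC50 alone.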

Experiment [3] has as its target T1, PRMT5. In words: PRMT5 IC50 assay in the presence of MTA as cofactor. Format: biochemical. The note with it: for IC50: PRMT5, MTA as cofactor. Summed up: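 Each compound is tested on PRMT5 in the presence of SAM, of MTA, and without any cofactor. Ki values are then back-calculated using fixed factors of 1.5 (SAM) and 13.5 (MTA), and the two Ki values are compared as a ratio.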

The test system of a further experiment is HAP1 MTAP-deleted. In words: SDMA in-cell western assay, HAP1 MTAP-deleted cell line. Type of experiment: cell-based. The conditions noted are these: for IC50: Homo sapiens, HAP1 MTAP-deleted cell line; for MTAP Intact/Deleted Ratio: IC50 ratio HAP1 MTAP-intact / HAP1 MTAP-deleted. Summed up: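 Symmetric dimethylarginine (SDMA) levels were measured by in-cell western in MTAP-null HAP1 cells, one half of an MTAP-isogenic pair whose partner line expresses endogenous MTAP. Compound potency is reported as IC50.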

[4] abbreviates: ratio between the Ki in the presence of SAM and the Ki in the presence of MTA.
[5] abbreviates: ratio between Ki in the presence of SAM and Ki in the presence of MTA.

Each structure is given as a SMILES string. A value given as a limit tells only on which side of the number the result lay.

T1 sequence (O14744 whole entry): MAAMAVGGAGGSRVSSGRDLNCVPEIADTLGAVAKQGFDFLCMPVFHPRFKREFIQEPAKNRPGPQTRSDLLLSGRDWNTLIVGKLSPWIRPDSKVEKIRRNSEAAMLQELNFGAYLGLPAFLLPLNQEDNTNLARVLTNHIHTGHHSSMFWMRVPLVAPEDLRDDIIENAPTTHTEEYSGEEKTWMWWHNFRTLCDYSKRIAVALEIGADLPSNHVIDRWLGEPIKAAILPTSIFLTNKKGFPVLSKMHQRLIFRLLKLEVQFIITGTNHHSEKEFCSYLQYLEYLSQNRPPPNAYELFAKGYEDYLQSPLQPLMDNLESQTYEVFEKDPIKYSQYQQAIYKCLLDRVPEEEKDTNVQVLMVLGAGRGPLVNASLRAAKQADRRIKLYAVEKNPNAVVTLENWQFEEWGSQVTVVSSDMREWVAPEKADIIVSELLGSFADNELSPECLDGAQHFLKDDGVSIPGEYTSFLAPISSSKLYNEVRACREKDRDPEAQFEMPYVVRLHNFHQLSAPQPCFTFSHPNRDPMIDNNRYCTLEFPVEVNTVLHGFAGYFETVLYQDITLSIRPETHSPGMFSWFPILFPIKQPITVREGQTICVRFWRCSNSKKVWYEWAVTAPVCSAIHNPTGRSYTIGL
T1 sequence (Q9BQA1 whole entry partner): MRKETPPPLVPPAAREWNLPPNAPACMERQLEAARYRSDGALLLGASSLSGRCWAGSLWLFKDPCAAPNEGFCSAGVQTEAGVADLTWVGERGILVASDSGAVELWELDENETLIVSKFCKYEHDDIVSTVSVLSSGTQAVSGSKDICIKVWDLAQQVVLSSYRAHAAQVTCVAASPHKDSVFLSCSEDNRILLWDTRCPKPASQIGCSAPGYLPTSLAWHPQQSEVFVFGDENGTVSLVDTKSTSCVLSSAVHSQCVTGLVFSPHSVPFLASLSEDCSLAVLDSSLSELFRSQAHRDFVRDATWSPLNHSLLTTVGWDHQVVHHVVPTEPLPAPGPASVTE

For orientation: IC50 means the point on the concentration scale where inhibition reaches its midpoint. As to `Cc1ncoc1COc1ccc2c(c1Br)CCN(C[C@@H](O)CNC(=O)c1cccc(NC3CCC3)c1)C2` [Compound 354, (S)—N-(3-(5-bromo-6-((4-methyloxazol-5-yl)methoxy)-3,4-dihydroisoquinolin-2(1H)-yl)-2-hydroxypropyl)-3-(cyclobutylamino)benzamide], the IC50 at PRMT5 [1] was 500 to 5000 nM; with HAP1 MTAP-intact, at least 10 µM; at PRMT5 [2] (read-out: No Co-factor IC50), at least 5 µM; at PRMT5 [3], 500 to 5000 nM; in the experiment with HAP1 MTAP-deleted it was at least 10 µM. In addition, in the experiment on HAP1 MTAP-deleted, the “MTAP Intact/Deleted Ratio” value was “C* (an IC50 ratio of less than 3 fold between the IC50 in the HAP1 MTAP-intact cell line and the HAP1 MTAP-deleted cell line)”.

For the compound `Cc1ncoc1COc1ccc2c(c1C)CCN(C[C@@H](O)CNC(=O)c1ccc3c(c1)CCN(C(=O)c1ccc(Br)cc1)C3)C2` [Compound 530], the IC50 on PRMT5 [1] was 50 to 500 nM; with HAP1 MTAP-intact it was at least 10 µM; on PRMT5 [2] it was at least 5 µM; on PRMT5 [3], 50 to 500 nM; in the experiment on HAP1 MTAP-deleted it was at least 10 µM. Besides, on PRMT5 [3] (setting [4]), the “SAM/MTA Ratio” value is “A (a Ki ratio greater than or equal to 10 fold between the Ki in the presence of SAM and the Ki in the presence of MTA)”. Moreover, in the experiment with HAP1 MTAP-deleted, the “MTAP Intact/Deleted Ratio” value is “C* (an IC50 ratio of less than 3 fold between the IC50 in the HAP1 MTAP-intact cell line and the HAP1 MTAP-deleted cell line)”.

As to `Cc1ncoc1COc1ccc2c(c1C)CCN(C[C@@H](O)CNC(=O)c1cccc(NC3COC3)c1)C2` [Compound 375, N-[(2S)-2-hydroxy-3-{5-methyl-6-[(4-methyl-1,3-oxazol-5-yl)methoxy]-1,2,3,4-tetrahydroisoquinolin-2-yl}propyl]-3-[(oxetan-3-yl)amino]benzamide], the 50% inhibitory concentration (IC50) at PRMT5 [1] is 500 to 5000 nM; in the experiment on HAP1 MTAP-intact it was at least 10 µM; at PRMT5 [2] (read-out: No Co-factor IC50) it was at least 5 µM; on PRMT5 [3], 500 to 5000 nM; in the experiment on HAP1 MTAP-deleted, at least 10 µM. For the same compound, the “SAM/MTA Ratio” value on PRMT5 [3] (setting [5]) was “A (a Ki ratio greater than or equal to 10 fold between the Ki in the presence of SAM and the Ki in the presence of MTA)”. For the same compound, the “MTAP Intact/Deleted Ratio” value in the experiment with HAP1 MTAP-deleted was “C* (an IC50 ratio of less than 3 fold between the IC50 in the HAP1 MTAP-intact cell line and the HAP1 MTAP-deleted cell line)”.

Take `CC(=O)N(C)[C@H]1CC[C@H](Nc2cc(C(=O)NC[C@H](O)CN3CCc4c(ccc(OCc5cnco5)c4C)C3)ncn2)CC1` [Compound 605, N-[(2S)-2-hydroxy-3-{5-methyl-6-[(1,3-oxazol-5-yl)methoxy]-1,2,3,4-tetrahydroisoquinolin-2-yl}propyl]-6-{[(1r,4r)-4-(N-methylacetamido)cyclohexyl]amino}pyrimidine-4-carboxamide]: the IC50 on PRMT5 [1] is 50 to 500 nM; with HAP1 MTAP-intact it was at least 10 µM; on PRMT5 [2], at least 5 µM; at PRMT5 [3] it was 50 to 500 nM; in the experiment on HAP1 MTAP-deleted it was 1 to 10 µM. The “SAM/MTA Ratio” value at PRMT5 [3] (setting [4]) is “A (a Ki ratio greater than or equal to 10 fold between the Ki in the presence of SAM and the Ki in the presence of MTA)”. In addition, the “MTAP Intact/Deleted Ratio” value in the experiment on HAP1 MTAP-deleted is “B* (an IC50 ratio greater than or equal to 3 fold but lower than 10 fold between the IC50 in the HAP1 MTAP-intact cell line and the HAP1 MTAP-deleted cell line)”.

As to `Cc1ncoc1COc1ccc2c(c1)CCN(C[C@@H](O)CNC(=O)c1ccnc(NC3CC4(CCC4)C3)c1)C2` [Compound 609, (S)—N-(2-hydroxy-3-(6-((4-methyloxazol-5-yl)methoxy)-3,4-dihydroisoquinolin-2(1H)-yl)propyl)-2-(spiro[3.3]heptan-2-ylamino)isonicotinamide], the half-maximal inhibitory concentration (IC50) is 500 to 5000 nM on PRMT5 [1]; 1 to 10 µM with HAP1 MTAP-intact; 0.5 to 5 µM against PRMT5 [2]; below 50 nM at PRMT5 [3]; below 1 µM in the experiment with HAP1 MTAP-deleted. In addition, the “SAM/MTA Ratio” value at PRMT5 [3] (setting [4]) is “A (a Ki ratio greater than or equal to 10 fold between the Ki in the presence of SAM and the Ki in the presence of MTA)”. The “MTAP Intact/Deleted Ratio” value in the experiment on HAP1 MTAP-deleted was “B* (an IC50 ratio greater than or equal to 3 fold but lower than 10 fold between the IC50 in the HAP1 MTAP-intact cell line and the HAP1 MTAP-deleted cell line)”.

As to `CCN(C)c1cc(C(=O)NC[C@H](O)CN2CCc3c(ccc(OCc4ocnc4C)c3C)C2)cc(NC2CCC2)n1` [Compound 478, 2-(cyclobutylamino)-6-[ethyl(methyl)amino]-N-[(2S)-2-hydroxy-3-{5-methyl-6-[(4-methyl-1,3-oxazol-5-yl)methoxy]-1,2,3,4-tetrahydroisoquinolin-2-yl}propyl]pyridine-4-carboxamide], the IC50 on PRMT5 [1] was 500 to 5000 nM; with HAP1 MTAP-intact, at least 10 µM; against PRMT5 [2], at least 5 µM; on PRMT5 [3], 50 to 500 nM; with HAP1 MTAP-deleted, at least 10 µM. At PRMT5 [3] (setting [4]), the “SAM/MTA Ratio” value was “A (a Ki ratio greater than or equal to 10 fold between the Ki in the presence of SAM and the Ki in the presence of MTA)”. In addition, the “MTAP Intact/Deleted Ratio” value with HAP1 MTAP-deleted was “C* (an IC50 ratio of less than 3 fold between the IC50 in the HAP1 MTAP-intact cell line and the HAP1 MTAP-deleted cell line)”.

On to `Cc1ncoc1COc1ccc2c(c1)CCN(C[C@@H](O)CNC(=O)c1cc(NC3CCC3)nc(N3CCOCC3)c1)C2` [Compound 384, 2-(cyclobutylamino)-N-[(2S)-2-hydroxy-3-{6-[(4-methyl-1,3-oxazol-5-yl)methoxy]-1,2,3,4-tetrahydroisoquinolin-2-yl}propyl]-6-(morpholin-4-yl)pyridine-4-carboxamide], for which the IC50 on PRMT5 [1] is 50 to 500 nM; in the experiment on HAP1 MTAP-intact it was below 1 µM; at PRMT5 [2] (read-out: No Co-factor IC50) it was 0.5 to 5 µM; at PRMT5 [3], 50 to 500 nM; in the experiment on HAP1 MTAP-deleted it was below 1 µM. The “SAM/MTA Ratio” value at PRMT5 [3] (setting [5]) was “A (a Ki ratio greater than or equal to 10 fold between the Ki in the presence of SAM and the Ki in the presence of MTA)”. The “MTAP Intact/Deleted Ratio” value with HAP1 MTAP-deleted is “B* (an IC50 ratio greater than or equal to 3 fold but lower than 10 fold between the IC50 in the HAP1 MTAP-intact cell line and the HAP1 MTAP-deleted cell line)”.

As to `CCCC(=O)N1CC(Nc2cc(C(=O)NC[C@H](O)CN3CCc4c(ccc(OCc5cnco5)c4C)C3)ccn2)C1` [Compound 551, (S)-2-((1-butyrylazetidin-3-yl)amino)-N-(2-hydroxy-3-(5-methyl-6-(oxazol-5-ylmethoxy)-3,4-dihydroisoquinolin-2(1H)-yl)propyl)isonicotinamide], the IC50 is 50 to 500 nM at PRMT5 [1]; at least 10 µM in the experiment on HAP1 MTAP-intact; 0.5 to 5 µM at PRMT5 [2]; 50 to 500 nM on PRMT5 [3]; at least 10 µM in the experiment with HAP1 MTAP-deleted. Moreover, at PRMT5 [3] (setting [4]), the “SAM/MTA Ratio” value is “A (a Ki ratio greater than or equal to 10 fold between the Ki in the presence of SAM and the Ki in the presence of MTA)”. In addition, in the experiment with HAP1 MTAP-deleted, the “MTAP Intact/Deleted Ratio” value was “C* (an IC50 ratio of less than 3 fold between the IC50 in the HAP1 MTAP-intact cell line and the HAP1 MTAP-deleted cell line)”.

Take `CC(=O)N1CC(Nc2cc(C(=O)NC[C@H](O)CN3CCc4cc(OCc5cnco5)ccc4C3)ccn2)C1` [Compound 451]: the IC50 was 50 to 500 nM on PRMT5 [1]; at least 10 µM in the experiment with HAP1 MTAP-intact; 0.5 to 5 µM on PRMT5 [2]; 50 to 500 nM on PRMT5 [3]; at least 10 µM in the experiment on HAP1 MTAP-deleted. On PRMT5 [3] (setting [4]), the “SAM/MTA Ratio” value is “A (a Ki ratio greater than or equal to 10 fold between the Ki in the presence of SAM and the Ki in the presence of MTA)”. Besides, the “MTAP Intact/Deleted Ratio” value in the experiment on HAP1 MTAP-deleted is “C* (an IC50 ratio of less than 3 fold between the IC50 in the HAP1 MTAP-intact cell line and the HAP1 MTAP-deleted cell line)”.

For `Cc1ncoc1COc1ccc2c(c1)CCN(C[C@@H](O)CNC(=O)c1ccnc(Nc3cccnc3)c1)C2` [Compound 581, (S)—N-(2-hydroxy-3-(6-((4-methyloxazol-5-yl)methoxy)-3,4-dihydroisoquinolin-2(1H)-yl)propyl)-2-(pyridin-3-ylamino)isonicotinamide], the IC50 at PRMT5 [1] is 50 to 500 nM; in the experiment with HAP1 MTAP-intact, 1 to 10 µM; against PRMT5 [2], at least 5 µM; at PRMT5 [3] it was 50 to 500 nM; in the experiment on HAP1 MTAP-deleted it was 1 to 10 µM. On PRMT5 [3] (setting [4]), the “SAM/MTA Ratio” value was “A (a Ki ratio greater than or equal to 10 fold between the Ki in the presence of SAM and the Ki in the presence of MTA)”. For the same compound, the “MTAP Intact/Deleted Ratio” value with HAP1 MTAP-deleted was “B* (an IC50 ratio greater than or equal to 3 fold but lower than 10 fold between the IC50 in the HAP1 MTAP-intact cell line and the HAP1 MTAP-deleted cell line)”.

On to `CC(C)N1CCN(c2cc(C(=O)NC[C@H](O)CN3CCc4cc(OCc5cnco5)ccc4C3)cc(NC3CCC3)n2)CC1` [Compound 462, (S)-2-(cyclobutylamino)-N-(2-hydroxy-3-(6-(oxazol-5-ylmethoxy)-3,4-dihydroisoquinolin-2(1H)-yl)propyl)-6-(4-isopropylpiperazin-1-yl)isonicotinamide], for which the IC50 on PRMT5 [1] is 50 to 500 nM; in the experiment on HAP1 MTAP-intact, at least 10 µM; at PRMT5 [2] it was 0.5 to 5 µM; on PRMT5 [3] it was 50 to 500 nM; with HAP1 MTAP-deleted it was at least 10 µM. In addition, at PRMT5 [3] (setting [4]), the “SAM/MTA Ratio” value is “A (a Ki ratio greater than or equal to 10 fold between the Ki in the presence of SAM and the Ki in the presence of MTA)”. The “MTAP Intact/Deleted Ratio” value with HAP1 MTAP-deleted is “C* (an IC50 ratio of less than 3 fold between the IC50 in the HAP1 MTAP-intact cell line and the HAP1 MTAP-deleted cell line)”.
